Laboratory results taken from patent US20260200982A1, “HER RECEPTOR DERIVED PEPTIDES AND METHODS OF USE THEREOF” (Ramot at Tel-Aviv University Ltd., priority 2022, published 2026).
The star is where a group is joined. Myristoyl = CCCCCCCCCCCCCC(=O)*

Legend:
[1] = test system: ErbB2; experiment: Western blot analysis of dissected Panc-1 tumors, ErbB2; format: in vivo, human; settings: Panc-1 tumor lysates; FIGS. 10A-C
Protocol: (§1) Pancreatic Tumor Growth in Nude Mice—The study was conducted according to the NIH Guidelines for Use and Care of Laboratory Animals and following the approval by Animal Care Committee of the Tel Aviv University. Nude CD1-Nu mice (25-30 g) housed in barrier facilities on a 12-h light/dark cycle one week prior to the injection of tumor cells (day zero). On day zero, 2×10^6 Panc 1 cells in 0.1 ml of PBS were implanted subcutaneously just above the right femoral joint. Tumor size was measured every 3-4 days. When the tumors were apparently seen and the calculated tumor size was 40 mm^3, the animals were divided randomly into two groups of mice (control vehicle treated and myr-NLS (SEQ ID NO: 5) treated; 8 mice per group). Treatment with the myr-NLS (SEQ ID NO: 5) was performed by intraperitoneal injection of 25 μg in 100 μl PBS (or 100 μl PBS for control mice) every day. Tumors size was measured 3 times a week. At the end of the experiment, the mice were sacrificed, and the tumors were dissected and used for further analysis.
(§2) Western blot analysis—Half of each tumor was homogenized in lysis buffer, using a Potter-Elvehjem manual homogenizer, cleared and kept at −70° C. […] Immunoreactive bands were detected with the enhanced chemiluminescence reagent (Luminata Crescendo Western HRP). Densitometric quantification analysis of the resulted images was done using ImageJ program. […]

[2] = molecular target: nucleolin (Homo sapiens, UniProt P19338); experiment: Western blot analysis of dissected Panc-1 tumors, nucleolin; format: in vivo; design: endogenous in cells; host or cells: Panc-1; settings: Panc-1 tumor lysates; FIGS. 10A-C
Protocol: as §1, §2

[3] = test system: Akt; experiment: Western blot analysis of dissected Panc-1 tumors, Akt; format: in vivo, human; settings: Panc-1 tumor lysates; FIGS. 10A-C
Protocol: as §1, §2

[4] = test system: EGFR (ErbB1); experiment: Western blot analysis of dissected Panc-1 tumors, EGFR; format: in vivo, human; settings: Panc-1 tumor lysates
Protocol: as §1
Western blot analysis—Half of each tumor was homogenized in lysis buffer, using a Potter-Elvehjem manual homogenizer, cleared and kept at −70° C. The lysates (30 μg) were resolved by SDS-polyacrylamide gel electrophoresis (SDS-PAGE) and transferred to nitrocellulose membranes. The membranes were blocked with TBST buffer containing 6% milk and reacted with the indicated primary antibodies followed by second antibodies. Immunoreactive bands were detected with the enhanced chemiluminescence reagent (Luminata Crescendo Western HRP). Densitometric quantification analysis of the resulted images was done using ImageJ program.
Following, the present inventors examined whether the reduction of the tumor growth rate correlates with alterations expression and activation of the relevant proteins. To this end, lysates were prepared form the dissected tumors for protein levels evaluations. The tumor lysates were processed for western blot analysis (30 μg protein, 10% SDS polyacrylamide gel electrophoresis) and protein levels were determined using the indicated antibodies.

[5] = test system: LNCaP prostate cancer cells; experiment: Methylene blue viability assay, LNCaP; format: cell-based, human; settings: 72 hours, FIGS. 4B and 4C, read-out: IC50 (cell viability)
Excerpt: Cell lines—Human breast cancer cell lines SKBR3 [Peles E et al. EMBO J. (1993) 12(3):961-71] and MCF7 [Faigenbloom L et al., Mol Syst Biol. (2015) 11(12):845] and human glioblastoma U87 [Goldberg L et al. Cancer Res. (2006) 66(24):11709-17] cell line, as well as Rat-1 fibroblast cells and H-Ras-transformed Rat-1 cells (EJ cells) [Marom M et al. J Biol Chem. (1995) 270(38):22263-70] and human Panc-1 and MIA PaCa-2 pancreatic cell lines (Rak R et al. Oncoscience. 2014 1(1):39-48; Weisz B et al. Oncogene (1999) 18, 2579±2588) were all grown in Dulbecco's modified Eagle's medium (DMEM; Biological Industries, Beithaemek, Israel). Human colorectal cancer cell lines DLD-1 (ATTC Cat No. CCL-221), HCT-116 (ATTC Cat No. CCL-247) and LNCaP prostate cancer cells were grown in Roswell Park Memorial Institute 1640 (RPMI 1640) medium and McCoy's 5A media, respectively (Sigma-Aldrich). All media were supplemented with antibiotics and 10% heat-inactivated fetal bovine serum (FBS; Gibco). Human breast cell line MCF10A [Bott A et al. Oncotarget. […]
Methylene blue viability assay—Cells were plated in 96-wells plates at cell densities of 1.5×10^3 (EJ, DLD-1), 3×10^3 (Rat-1, HCT-116, U87), 5×10^3 (SKBR3, MCF7) and 6×10^3 (MCF10A) cells/well. […] IC-50 values were calculated using a non-linear regression model (logarithmic inhibitor vs. normalized response-variable slope) with the GraphPad Prism 6 software.

nucleolin, sequence (P19338 whole entry): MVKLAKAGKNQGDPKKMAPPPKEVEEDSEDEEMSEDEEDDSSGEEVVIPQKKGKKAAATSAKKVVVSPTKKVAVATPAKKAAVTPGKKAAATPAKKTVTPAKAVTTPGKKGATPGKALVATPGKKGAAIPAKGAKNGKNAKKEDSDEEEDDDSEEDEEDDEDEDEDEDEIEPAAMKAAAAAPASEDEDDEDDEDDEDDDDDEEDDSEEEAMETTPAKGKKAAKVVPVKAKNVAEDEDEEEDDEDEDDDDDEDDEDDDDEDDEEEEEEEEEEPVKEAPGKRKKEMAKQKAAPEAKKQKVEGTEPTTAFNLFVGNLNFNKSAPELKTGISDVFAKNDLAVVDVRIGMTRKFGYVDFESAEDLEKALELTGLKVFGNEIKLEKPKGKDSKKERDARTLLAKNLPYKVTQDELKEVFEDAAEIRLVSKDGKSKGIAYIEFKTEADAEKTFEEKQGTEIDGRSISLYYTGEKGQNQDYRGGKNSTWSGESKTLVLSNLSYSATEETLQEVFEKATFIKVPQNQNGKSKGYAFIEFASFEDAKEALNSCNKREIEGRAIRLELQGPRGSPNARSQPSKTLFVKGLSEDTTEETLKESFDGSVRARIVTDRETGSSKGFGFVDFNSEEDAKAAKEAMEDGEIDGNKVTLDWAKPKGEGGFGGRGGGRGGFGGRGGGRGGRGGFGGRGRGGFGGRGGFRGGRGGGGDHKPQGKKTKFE

- nucleolin levels in tumors [2]: significant reduction
- IC50 [5]: 7.6 µM
Substance: Myr-RRRHIVRKRTLRRLL-OH (Myristoyl-RRRHIVRKRTLRRLL-OH; SMILES CCCCCCCCCCCCCC(=O)N[C@@H](CCCNC(=N)N)C(=O)N[C@@H](CCCNC(=N)N)C(=O)N[C@@H](CCCNC(=N)N)C(=O)N[C@@H](Cc1c[nH]cn1)C(=O)N[C@H](C(=O)N[C@H](C(=O)N[C@@H](CCCNC(=N)N)C(=O)N[C@@H](CCCCN)C(=O)N[C@@H](CCCNC(=N)N)C(=O)N[C@H](C(=O)N[C@@H](CC(C)C)C(=O)N[C@@H](CCCNC(=N)N)C(=O)N[C@@H](CCCNC(=N)N)C(=O)N[C@@H](CC(C)C)C(=O)N[C@@H](CC(C)C)C(=O)O)[C@@H](C)O)C(C)C)[C@@H](C)CC) [myr-NLS]
- levels of total ErbB2 in tumors [1]: reduced
- phosphorylated ErbB2 expression in tumors [1]: reduced
- Akt levels in tumors [3]: significant reduction
- ratio between EGFR and its phosphorylation state (activation of the EGFR) ([4]; FIG. 10C): affected the activation of the EGFR
- expression levels of EGFR in tumors ([4]; FIGS. 10A-C): reduced
- levels of phosphorylated EGFR in tumors ([4]; FIGS. 10A-C): reduced
